Measured values as given in article PMC5514153, “Targeting PTPRZ inhibits stem cell-like properties and tumorigenicity in glioblastoma cells” (Scientific Reports, 2017).

Assays:
[1] = tested on: PTPRZ and PTPRG V-to-F substitution mutants; test: Sensitivity of V-to-F mutants to competitive inhibitors; assay type: biochemical, human; details: SCB4380 10 µM, vanadate 200 µM; on average
Description: For determination of IC50 values, Lineweaver-Burk plot, and inhibitor sensitivity assays, recombinant PTP proteins were preincubated with a dilution series of the compound in assay buffer (100 mM acetate, 50 mM Tris, and 50 mM Bis-Tris, pH 6.5 containing 100 μg/ml BSA, 5 mM DTT, and 0.01% Brij-35) for 1 h, and the enzyme-inhibitor mixture was added to an equal volume of 40 μM DiFMUP (6,8-difluoro-4-methylumbiliferyl phosphate, #D6567, Thermo Fisher Scientific) solution to initiate the reaction. The hydrolysis of DiFMUP was continuously monitored as an increase in fluorescence at 455 nm (excitation at 358 nm) for ~100 s using a spectrofluorometer (FI-4500, Hitachi) at room temperature. The slope of the fluorescence signal was defined as catalytic activity. IC50 values were calculated by the conventional linear interpolation method. We examined preincubation effect, reversibility, and time dependence of PTP inhibition by NAZ2329 as described in the figure legends.
Le ge nds to Supple me ntary Figure s
Supplementary Figure S1. Aberrant expressions of core transcription factors in Ptprz-knockdown glioblastoma cells. (A) Western using antibodies against SOX2, OLIG2, POU3F2, and SALL2. […] SALL2 proteins were not detected in C6 or U251 cells. […]
positions corresponding to Val-1911 of PTPRZ1 are colored in blue and red, respectively. […] Data were analyzed as […]

[2] = not told; cited from earlier work
hPTPRZ1 (D1) = molecular target: T1, hPTPRZ1 (D1) (Homo sapiens, UniProt P23471); test: In vitro PTPase assay (DiFMUP), PTPRZ1 D1 domain; assay type: biochemical; details: first PTP domain fragment
T1 construct: human PTPRZ1-D1 (amino acid residues, 1,698-2,000)

[3] = molecular target: T2, human PTPRZ1 (whole intracellular region, D1+D2) (Homo sapiens, UniProt P23471); test: In vitro PTPase assay (DiFMUP), PTPRZ1 whole intracellular region; assay type: biochemical
T2 construct: Recombinant proteins corresponding to the entire intracellular regions (ICRs) of PTPRZ1, PTPRA, and PTPRM; made in house; host or cells: baculovirus-silkworm expression system
Description: Figure 4 NAZ2329, an allosteric inhibitor of R5 RPTP subfamily members. (A) Structure of NAZ2329. (B) Effect of preincubation of NAZ2329 on its inhibitory activity against PTPRZ. Recombinant human PTPRZ1 enzyme (the whole intracellular region) was premixed with NAZ2329 for the indicated times and followed by addition of a fluorogenic DiFMUP (non-specific PTP substrate, 6,8-difluoro-4-methylumbiliferyl phosphate) to measure PTP inhibitory activity. (C) Time dependence. The PTPRZ1 enzyme was added to the inhibitor–substrate mixture, and the inhibitory activity was determined at each time point relative to the vehicle control. (D) Reversibility of inhibition. PTPRZ1 enzymes were preincubated with NAZ2329 at the indicated concentrations for 30 min. The mixture was then 20-fold diluted, and recovered PTP activity was expressed as the relative activity compared with the vehicle-treated enzyme. (E) Lineweaver-Burk plot analysis. PTPRZ1 enzymes were preincubated with NAZ2329 for 60 min, and the PTP activity was measured using DiFMUP. (F) Concentration-inhibition curves of NAZ2329 for representative PTP members, including human PTPRZ and PTPRG (another R5 RPTP subfamily member), human PTPRS (R2A subfamily), human PTPRM (R2B subfamily), mouse PTPRB (R3 subfamily), human PTPRA (R4 subfamily), human PTPN1 (non-transmembrane PTP, NT1 subfamily), and human PTPN6 (NT2 subfamily), were generated. Assays were performed using DiFMUP. IC50 values obtained are shown in the inset. Data represent the averages of two or three separate experiments. TEXT PRINTED IN THE PICTURE: (F) NAZ2329: IC50 (μM): hPTPRZ1 7.5; IC50 (μM): hPTPRG 4.8; IC50 (μM): hPTPRA 35.7; IC50 (μM): hPTPRM 56.7; IC50 (μM): hPTPRS 23.7; IC50 (μM): mPTPRB 35.4; IC50 (μM): hPTPN6 15.2; IC50 (μM): hPTPN1 14.5
Recombinant proteins corresponding to the entire intracellular regions (ICRs) of PTPRZ1, PTPRA, and PTPRM were expressed using a baculovirus-silkworm expression system, and purified as described. The ICRs of PTPRG, PTPRS, and PTPRB and the catalytic domains of PTPN1 and PTPN6 were expressed as glutathione-S-transferase (GST) fusion proteins from each pGEX plasmid in Escherichia coli strain BL21 (ref. [6]). GST fusion proteins were purified by glutathione affinity chromatography as described. Chondroitinase ABC (chABC) was purchased from Sigma-Aldrich (catalog #C3667). Anti-PTPRZ-S, rabbit polyclonal antibodies against the extracellular region of PTPRZ was described previously (ref. [44]). The following are the specificities and sources of the commercially available antibodies used in the present study: Anti-RPTPβ (a monoclonal antibody against the intracellular domain of PTPRZ1 receptors, #610179, BD Biosciences), anti-SOX2 (#ab97959, Abcam), anti-POU3F2 (#12137, Cell Signaling), anti-OLIG2 (#AB9610, Millipore), anti-SALL2 (#12679–1-AP, Proteintech Group), anti-GAPDH (#ab9482, Abcam) anti-phosphotyrosine (PY20; #ab16389, Abcam), and anti-pY118-paxillin (#2541, Cell Signaling), mouse anti-paxillin antibody (#610569, BD Bioscience), anti-MBP (#sc-13914, Santa Cruz Biotechnology), and anti-NG2 proteoglycan (#AB5320, Millipore). […]

C6 xenograft = test: C6 subcutaneous xenograft nude mouse model; assay type: in vivo; details: nude mice, i.p. twice per week; NAZ2329 45 µmol (22.5 mg)/kg, TMZ 50 mg/kg; vehicle 17 days
Description: Figure 10 Antitumor effects of NAZ2329 on the C6 mouse xenograft model. (A) Nude mice were subcutaneously implanted with C6 cells (5 × 10^6 cells), and tumor size was monitored until the criteria were met (>150 mm^3). At this time, mice were randomly divided into 4 treatment groups. DMSO as the vehicle control (n = 7), NAZ2329 (45 µmol (22.5 mg)/kg body weight, n = 9), temozolomide (TMZ, 50 mg/kg, n = 9), and the combination of NAZ2329 (45 µmol/kg) with TMZ (50 mg/kg) (n = 9) were administered intraperitoneally twice per week until the humane endpoint (>3,000 mm^3 tumor size or 40 days after the treatment). Tumor growth in each animal and the number of days required to reach a tumor volume of 3,000 mm^3 are shown in the graph. Five mice were sacrificed due to tumor necrosis (shown by gray symbols in the graph), and two mice unexpectedly died suddenly during the observation period (black symbols in the graph).
Parental or Ptprz-knockdown C6 cells (5 × 10^6 cells) suspended in a volume of 100 µl were subcutaneously injected into the left hind limbs of BALB/c-nu/nu mice (females, 4 weeks old mice were purchased from Japanese Charles River Co. Ltd.). Tumor growth was measured with calipers and calculated by the formula: volume = length × width × width × 0.5, as previously described. The drug treatment initiated when the tumor size reached 150 mm^3. […]

T2 sequence (P23471 1663-2315 limits assumed): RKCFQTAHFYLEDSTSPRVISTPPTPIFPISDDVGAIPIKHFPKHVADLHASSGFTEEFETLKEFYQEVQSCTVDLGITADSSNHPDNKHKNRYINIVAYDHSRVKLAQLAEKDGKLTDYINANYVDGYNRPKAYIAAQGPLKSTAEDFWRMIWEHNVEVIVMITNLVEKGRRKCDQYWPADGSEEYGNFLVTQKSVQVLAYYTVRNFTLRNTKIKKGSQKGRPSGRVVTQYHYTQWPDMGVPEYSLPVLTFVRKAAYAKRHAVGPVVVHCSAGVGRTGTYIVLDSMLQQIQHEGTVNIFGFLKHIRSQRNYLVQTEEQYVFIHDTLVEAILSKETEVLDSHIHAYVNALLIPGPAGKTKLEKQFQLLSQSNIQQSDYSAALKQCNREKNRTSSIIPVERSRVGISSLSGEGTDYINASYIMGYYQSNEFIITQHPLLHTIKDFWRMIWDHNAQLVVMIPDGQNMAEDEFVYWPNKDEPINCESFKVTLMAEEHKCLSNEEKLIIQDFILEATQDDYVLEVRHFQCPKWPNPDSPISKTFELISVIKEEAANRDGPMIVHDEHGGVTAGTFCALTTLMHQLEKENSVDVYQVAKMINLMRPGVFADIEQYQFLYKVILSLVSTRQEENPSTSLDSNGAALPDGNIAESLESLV
T1 sequence (P23471 1698-2000 limits assumed): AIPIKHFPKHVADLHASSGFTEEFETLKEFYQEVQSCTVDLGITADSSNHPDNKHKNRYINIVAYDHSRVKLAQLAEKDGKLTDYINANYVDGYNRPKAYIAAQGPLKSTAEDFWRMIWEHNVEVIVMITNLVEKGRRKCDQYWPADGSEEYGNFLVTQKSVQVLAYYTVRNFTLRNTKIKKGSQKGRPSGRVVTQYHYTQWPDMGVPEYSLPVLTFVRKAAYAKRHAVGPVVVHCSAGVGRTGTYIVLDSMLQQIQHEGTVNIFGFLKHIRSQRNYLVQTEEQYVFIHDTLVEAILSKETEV

Compound	change in sensitivity on V-to-F substitution in PTPRZ and PTPRG [1]	cell permeability [2]	IC50 hPTPRZ1 (D1) (hPTPRZ1 (D1))	inhibitory effects on PTPRZ activity ([3]; Supplementary Fig. S2)	IC50 hPTPRZ1 (D1+D2) ([3]; whole intracellular region, DiFMUP, 60-min preincubation)	median day for the tumor size to reach 3,000 mm^3 (C6 xenograft) [days]
O=S(=O)([O-])c1ccc2c(N=Nc3ccc(S(=O)(=O)[O-])c4ccccc34)c(O)c(S(=O)(=O)[O-])cc2c1.[Na+].[Na+].[Na+] [SCB4380]	~ 5%	cell impermeable	–	–	–	–
Cn1nnc2c(C(N)=O)ncn2c1=O [temozolomide, reference compound]	–	–	ns	no significant inhibitory effects	ns	25
[O]=[V]([O-])([O-])[O-] [vanadate]	~ 5%	–	–	–	–	–
